Results taken from PubChem BioAssay (NCI).
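Growth conditions: 96-well plates. Treatment: test compound, 48 hours, 5 concentrations. Analysis: linear interpolation between bracketing concentrations; unreached endpoints set to highest concentration. TGI: concentration producing complete growth inhibition.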

Assays:
Assay in all cases: growth of human tumour cells (NCI), 48 h
EKVX NSCLC = test system: EKVX NSCLC
HOP-62 NSCLC = test system: HOP-62 NSCLC
HOP-92 NSCLC = test system: HOP-92 NSCLC
K-562 leukemia = test system: K-562 leukemia
NCI-H460 lung = test system: NCI-H460 lung
NCI-H522 lung = test system: NCI-H522 lung
SF-268 CNS = test system: SF-268 CNS
SF-295 CNS = test system: SF-295 CNS
U251 CNS = test system: U251 CNS
UACC-257 melanoma = test system: UACC-257 melanoma
A549 NSCLC = test system: A549 NSCLC
MOLT-4 leukemia = test system: MOLT-4 leukemia

Compound | TGI (EKVX NSCLC) [µM] | TGI (HOP-62 NSCLC) [µM] | TGI (HOP-92 NSCLC) [µM] | TGI (K-562 leukemia) [µM] | TGI (NCI-H460 lung) [µM] | TGI (NCI-H522 lung) [µM] | TGI (SF-268 CNS) [µM] | TGI (SF-295 CNS) [µM] | TGI (U251 CNS) [µM] | TGI (UACC-257 melanoma) [µM] | TGI (A549 NSCLC) [µM] | TGI (MOLT-4 leukemia) [µM]
OC1C#CCSCC#C/C=C\1 (stereo not given) | > 100 | > 100 | > 100 | 75.9 | 36.5 | 32.9 | > 100 | > 100 | > 100 | > 100 |  | 
N#Cc1c(N)n(-c2cccc(C(=O)O)c2)c(=O)c2cc([N+](=O)[O-])ccc12 |  |  | > 100 | > 100 | > 100 |  | > 100 |  | > 100 | > 100 | > 100 | 
CCOC(=O)NC(Nc1ccc(S(=O)(=O)Nc2nc(C)cc(C)n2)cc1)(C(=O)OCC)C(F)(F)F (stereo not given) | > 100 | > 100 | > 100 | > 100 | > 100 |  | > 100 | > 100 | > 100 |  | > 100 | > 100
Cc1ccc(-n2c(N)c(C#N)c3[nH]nc(N)c3c2=O)cc1 | > 100 | > 100 | > 100 | > 100 | > 100 |  | > 100 | > 100 | > 100 | > 100 |  | > 100
NNC(=O)c1n[nH]nc1C(=O)NN |  | > 100 |  | > 100 | > 100 |  | > 100 | > 100 | > 100 | > 100 | > 100 | > 100
Nc1nc(SC/C=C/c2ccccc2)c2[nH]cnc2n1 | > 100 | > 100 |  | > 100 | > 100 | > 100 | > 100 | > 100 | > 100 | > 100 | > 100 | > 100
CN=C1CC2c3cc(OC)c(OC)cc3CCN2C2=C1C(=O)CC(C)(C)C2 (stereo not given) | > 100 |  | > 100 |  | > 100 | > 100 | > 100 | > 100 | > 100 | > 100 | > 100 | > 100
CC1CN(C(=O)CN2CCC(CCCCN(C)C)CC2)c2ccccc2NC1=O (stereo not given) |  | > 100 | > 100 | > 100 | > 100 |  | > 100 | > 100 | > 100 | > 100 | > 100 | > 100
O=c1c(/C=C/c2c(O)ccc3ccccc23)nnc2sc(-c3cccc(Br)c3)nn12 | 98.1 | > 100 |  | 77.7 | > 100 | 42.3 | > 100 | > 100 | > 100 | > 100 | > 100 | 40.3
C[C@H](CCC(=O)O)[C@H]1CC[C@H]2[C@@H]3CC[C@@H]4C[C@H](O)CC[C@]4(C)[C@H]3C[C@H](O)[C@]12C | > 100 | 78.6 |  | > 100 | > 100 | 86.7 | > 100 | 38.9 | > 100 | > 100 | > 100 | 62.3
COc1ccc(C(OCC2OC(n3cc(C)c(=O)[nH]c3=O)CC2n2cc(Cn3cc(Cl)c(=O)[nH]c3=O)nn2)(c2ccccc2)c2ccccc2)cc1 (stereo not given) | > 100 | > 100 | > 100 |  |  | > 100 | > 100 | > 100 | > 100 | > 100 | > 100 | > 100
CN1C2CCC1CC(=CCOC(c1ccc(F)cc1)c1ccc(F)cc1)C2 | 40.8 | 32.2 |  | 28 | 35.3 | 24.7 | 27 | 30.9 | 33.2 | 31.7 | 32.4 | 42.3
O=[N+]([O-])c1ccc2c(c1)C1=C(CO2)Cc2ccccc2O1 | > 100 | > 100 | 81.5 | > 100 |  | 54.5 | 63.5 | > 100 | 36.2 | 33.5 | > 100 | 
COC(=O)c1cc2ccc(N)nc2[nH]c1=O | > 100 | > 100 | > 100 |  | > 100 | > 100 | > 100 | > 100 | > 100 | > 100 | > 100 | 
COC(=O)/C=C(\C)CC(O)/C=C(\C)CCC=C(C)C (stereo not given) | > 100 | > 100 | > 100 | > 100 | > 100 |  |  | > 100 | > 100 | > 100 | > 100 | 55.3
CN(C)C1(N(C)C)Oc2c(c(=O)n(C)c(=O)n2C)C(c2ccccc2)C1(F)F (stereo not given) | > 100 | > 100 | > 100 | > 100 | > 100 |  | > 100 | > 100 | > 100 | > 100 | > 100 | > 100
COC1(OC)C(N(C)C)=C(Cl)C(=O)/C1=C/C=O |  | > 100 | > 100 | > 100 | > 100 |  | > 100 | > 100 | > 100 | > 100 | > 100 | > 100
COC(=O)C1=C(C(=O)NNc2ccccc2)N(c2cccnc2Cl)C(c2ccccc2)=CC1c1ccccc1 (stereo not given) | > 100 | > 100 |  | > 100 | > 100 | > 100 | > 100 | 56 | > 100 | > 100 | > 100 | 67.2
CCCCNC(=S)Nc1nc(C(=O)NNC(=S)Nc2ccccc2)cs1 | > 100 | > 100 | 38.6 |  | > 100 |  | > 100 | > 100 | 48.3 | > 100 | > 100 | > 100
O=C(O)[C@@H]1CCS(=O)(=O)N1 | > 100 | > 100 |  |  | > 100 | > 100 | > 100 | > 100 |  | > 100 | > 100 | > 100
N#Cc1c2ccccc2cn1-c1ccc(F)cc1 |  | > 100 | 68.5 | > 100 | > 100 | 43.2 | 99.5 | > 100 | > 100 | 83.8 | > 100 | 90.5

Compound | TGI (EKVX NSCLC) [µM] | TGI (HOP-62 NSCLC) [µM] | TGI (HOP-92 NSCLC) [µM] | TGI (K-562 leukemia) [µM] | TGI (NCI-H460 lung) [µM] | TGI (NCI-H522 lung) [µM] | TGI (SF-268 CNS) [µM] | TGI (SF-295 CNS) [µM] | TGI (U251 CNS) [µM] | TGI (UACC-257 melanoma) [µM] | TGI (A549 NSCLC) [µM] | TGI (MOLT-4 leukemia) [µM]
CSc1nc(Nc2cccc(C(F)(F)F)c2)c2c(N)nn(C)c2n1 |  | > 100 |  | > 100 | > 100 | > 100 | > 100 | > 100 | > 100 | > 100 | > 100 | > 100
N#Cc1c(-c2ccc(Cl)cc2Cl)nc2[nH][nH]c(=S)n2c1=O | > 100 | > 100 | > 100 |  | > 100 | > 100 | > 100 | > 100 | > 100 | > 100 | > 100 | > 100
CSc1ncnc2c1ncn2CCC(=O)OC(C)(C)C | > 100 | > 100 | > 100 | > 100 | > 100 | > 100 | > 100 | > 100 |  | > 100 | > 100 | > 100
Cn1c(=O)c2c(nc(Cc3ccccc3)n2CC(=O)O)n(C)c1=O | > 100 | > 100 | > 100 |  | > 100 | > 100 | > 100 | > 100 | > 100 | > 100 | > 100 | > 100
CCCCCCOC(=O)/C=C/[C@]1(CO)C/C(=C/CC(C(C)C)C(C)C)C(=O)O1 | 13.4 | 27.6 | 25.4 | 31.2 | 20.5 | 25.9 | 23.5 | 29.8 |  | 31.6 | 18.4 | 25.6
O=C1/C(=C/c2ccccc2S)N=C(c2ccccc2)N1c1nc2c(Cl)cc(Cl)cc2s1 | 36 | 47.2 | 49.6 | 81.5 | > 100 |  | > 100 | 72.4 | 54.2 | > 100 | 54.3 | 30.2
CCC(C)OC(=O)/C(Br)=C1/OC(=O)c2ccccc2-c2ccccc21 (stereo not given) | > 100 | 35.1 | 81.9 | 40.6 | 73.9 | 44.3 | > 100 | > 100 |  | > 100 | > 100 | 50.7
CC1CCC(C(C)C)C(OC(=O)NCn2cc(-c3ccccc3)nn2)C1 (stereo not given) | > 100 | > 100 | > 100 | > 100 | > 100 | > 100 | > 100 | > 100 | > 100 | > 100 | > 100 | 
COC(=O)C1=C(O)C(C(=O)OC)[C@]2(O)[C@H](C(=O)OC)[C@H]1C[C@@H](c1ccc(C(F)(F)F)cc1)[C@H]2C(=O)OC (stereo not given in full) | 32.4 | > 100 | 34 | > 100 | > 100 |  | > 100 | 48.3 | 14.9 | 23.5 | > 100 | > 100
CCOC(=O)C12OC(CCC1=O)C(C(=O)OC)=C2C(=O)OC (stereo not given) | > 10 | > 10 |  | > 10 | > 10 | > 10 | > 10 | > 10 | > 10 | > 10 | > 10 | > 10
CCOc1ccccc1NC(=O)C(=O)CC(=O)c1sc(Nc2nnc(-c3ccc(Cl)c(Cl)c3)o2)nc1C | > 100 | > 100 | > 100 | > 100 | > 100 |  | > 100 | > 100 | 41.4 | > 100 | > 100 | > 100
O=C1CCCC1CN1CCCC1 (stereo not given) | 42.8 | > 100 | 12.6 | 1.18 | > 58.4 |  | 48.5 | > 100 | > 56.8 | 30.9 | > 100 | 1.07
S=C(S)NCNC(=S)S.[Zn+2] | > 100 | > 100 | > 100 | > 100 | > 100 |  | > 100 | > 100 | > 100 | > 100 | > 100 | > 100
Nc1nc(N)c2c3c(cnc2n1)CC(c1ccccc1)CC3 (stereo not given) | > 100 | 76.7 |  | > 100 | > 100 | 35.9 | 58.5 | > 100 | > 100 | > 100 | > 100 | > 100
Nc1ncnc2c1ncn2[C@@H]1C[C@@H]1CO | > 100 | > 100 |  | > 100 | > 100 | > 100 |  | > 100 | > 100 | > 100 | > 100 | > 100
CC12CC(c3ccccc3O1)C(C(=O)Nc1ccc(Cl)cc1Cl)C(=O)N2 (stereo not given) | 50.2 | 48.4 |  | > 100 | > 100 | > 100 | > 100 | > 100 | 48.2 | > 100 | 56.8 | 54.5
Cc1ccnc2[nH]c3ccccc3c(=O)c12 | 71.7 | > 100 | > 100 | > 100 | 97.5 | 32.9 | 45.5 | > 100 |  | > 100 |  | 55.1
COc1ccc(/C=C2\N=C(SC)N(CN3CCOCC3)C2=O)cc1 | > 100 | > 100 | 67.4 | > 100 |  | > 100 | > 100 | > 100 | > 100 |  | > 100 | > 100
CC(=O)Oc1ccc2c(C)cc(=O)oc2c1OC(C)=O | > 100 | > 100 |  | > 100 |  |  | > 100 | > 100 | > 100 | > 100 | > 100 | > 100
COc1ccc(S(=O)(=O)c2nnc(S(=O)(=O)Cc3ccccc3)s2)cc1 | 57.2 | 75.5 |  | > 100 | 38.1 | 27.1 | > 100 | 90.1 | 52.3 | 31.4 | 49.3 | 
